Consider eight compounds from patent publication US9669060B2, “Compositions for preventing and treating uterine disease” (CORNELL UNIVERSITY, priority 2009, dated 2017).

In assay [1] the test system is E. coli from calves. The settings on record: cited from earlier work.
The test system of assay [2] is Escherichia coli isolated from the uterus of postpartum Holstein dairy cows (57 isolates). As to the kind of experiment: Kinetic (spectrophotometric) MIC and growth curve test with antimicrobials. The assay is classed as cell-based. The settings on record: for MIC: Escherichia coli, minimum concentration that completely inhibited growth for 2-3 hours after beginning of stationary phase of control, estimated from graphics, read-out: Mean MICs; for Mean OD600: growth curve during 10 hours at 37° C., Mueller-Hinton broth. An excerpt:
Growth was periodically assessed spectrophotometrically in a microplate reader (Synergy™ 2, BioTek) at 600 nm. Curves were plotted with average of the duplicates. The results of this kinetic test were statistically analyzed to derive the mean MIC (mMIC) of the isolates for each antimicrobial tested.
A general linear mixed model was used to analyze the effect of the different antibiotic concentrations and bacteriophage MOIs on the growth curve of 57 E. coli isolates and determinate the mean values. The outcome variable was the OD600 of the Mueller-Hinton (BBL™) broth culture, which was modeled as a Gaussian (normally distributed data) variable. The assumption that the residuals were normally distributed was satisfied by visually evaluating the distribution plot of the studentized residuals. The independent variables offered to the model were: treatment (bacteriophage cocktail and all antimicrobials tested) and time (from 1 until 10). The interaction of treatment and time was also included in the model. […] This implies that data points were correlated within each E. coli isolate. To account appropriately for within correlation of the optical density, we modeled the error term by imposing a first-order autoregressive covariance structure. Variables and interaction were considered significant when their P-values<0.05.

In assay [3] the test system is Escherichia coli recovered from uterine secretion from Holstein dairy cows (n = 80 isolates). Kind of assay: Antimicrobial susceptibility assay, MIC by broth microdilution (CLSI). The assay is classed as cell-based. The settings on record: for MIC50 / MIC90: Escherichia coli, 18 hours at 37° C.; for MIC50: MIC that inhibits at least 50% of isolates; for MIC90: MIC that inhibits at least 90% of isolates. As to the method: The MIC determinations were performed by broth microdilution method as described by the Clinical and Laboratory Standards Institute (CLSI, 2008) recommendations. […] The dilutions for each antimicrobial tested ranged from 0.25 μg/ml to 256 μg/ml for all the antibiotics and all tests were performed in duplicates. The cultures were diluted in Mueller-Hinton broth to 10^5 CFU/ml and an aliquot of 200 μl of the diluted culture was added to microtiter plate wells, containing various concentrations of the antimicrobials, to a total volume of 300 μl per well. The assays were carried out in duplicates and the required controls of adequacy of the broth to support the growth of the microorganism and the sterility of the broth done.
In addition to the uterine E. coli isolates tested, the reference strain of E. coli ATCC 25922 was included as quality control for MIC determination, as recommended by the CLSI (CLSI, 2008). The MIC that inhibits at least 50% (MIC50) and at least 90% (MIC90) of the isolates, as well as the minimum and maximum MIC, were also derived.

For assay [4], the system named is uropathogenic E. coli. Conditions: fimH immunization, murine model (Langermann et al., 1997); cited from earlier work.

≈ marks a conversion by molar mass, not a printed value. Where two headings read alike, the source gives them in different places.

As usually defined, the MIC50 is the lowest concentration that inhibits either 50% of growth or 50% of the strains tested, depending on the study. For orientation: MIC90 means the lowest concentration that inhibits either 90% of growth or 90% of the strains tested, depending on the study. A high value points to weaker potency. On to `CC1(C)S[C@@H]2[C@H](NC(=O)[C@H](N)c3ccccc3)C(=O)N2[C@H]1C(=O)O` [Ampicillin, ampicillin], for which the “occurrence of ampicillin-resistant E. coli” value in assay [1] (feces of healthy lactating dairy calves (Sawant et al., 2007)) was 48%. Further, in assay [2], the MIC is 16 µg/mL and the “Mean OD600” value is reported as 0.14. Moreover, in assay [3], the “isolates resistant (CLSI criteria)” value is reported as 33.7%, the MIC50 was 16 µg/mL (≈ 45.8 µM) and the MIC90 was found to be 32 µg/mL (≈ 91.6 µM).

As for `CO/N=C(\C(=O)N[C@@H]1C(=O)N2C(C(=O)O)=C(CSC(=O)c3ccco3)CS[C@H]12)c1csc(N)n1` [Ceftiofur, ceftiofur], the “prevalence rate of ceftiofur-resistant E. coli” value in assay [1] (Bradford et al., 1999) is 11%. Moreover, the “prevalence rate of ceftiofur-resistant E. coli” value in assay [1] (Sawant et al., 2007) was 13%. For the same compound, the “occurrence of ceftiofur-resistant E. coli” value in assay [1] (diarrheic calves (White et al.)) is on record as 69%. In assay [2], the MIC is 16 µg/mL and the “Mean OD600” value is given as 0.05. In assay [3], the “isolates resistant (CLSI criteria)” value was determined as 1.2%, the isolates susceptible is given as 98.7%, the MIC50 is 1 µg/mL (≈ 1.91 µM) and the MIC90 came to 1 µg/mL (≈ 1.91 µM).

Consider `O=C(N[C@H](CO)[C@H](O)c1ccc([N+](=O)[O-])cc1)C(Cl)Cl` [Chloramphenicol, chloramphenicol], for which, in assay [2], the MIC is 128 µg/mL and the “Mean OD600” value was 0.18. In addition, in assay [3], the “isolates resistant (CLSI criteria)” value was 100%, the MIC50 is 64 µg/mL (≈ 198 µM) and the MIC90 was found to be 128 µg/mL (≈ 396 µM).

Take `CS(=O)(=O)c1ccc([C@@H](O)[C@@H](CF)NC(=O)C(Cl)Cl)cc1` [Florfenicol, florfenicol]: the “E. coli isolates resistant to both florfenicol and chloramphenicol” value in assay [1] (diarrheic dairy calves (White et al., 2000)) is recorded as 85%. Also, in assay [2], the MIC was 16 µg/mL and the “Mean OD600” value is reported as 0.10. Also, in assay [3], the “isolates resistant (CLSI criteria)” value is listed as 100%, the MIC50 was 16 µg/mL (≈ 44.7 µM) and the MIC90 is 16 µg/mL (≈ 44.7 µM).

Turning to `CN[C@@H]1[C@H](O)[C@H](NC)[C@H]2O[C@@]3(O)C(=O)C[C@@H](C)O[C@H]3O[C@@H]2[C@H]1O` [Spectinomycin, spectinomycin], in assay [2], the MIC was 32 µg/mL and the “Mean OD600” value is reported as 0.17. In addition, in assay [3], the “isolates resistant (CLSI criteria)” value is recorded as “none of them were resistant”, the MIC50 turned out to be 32 µg/mL (≈ 96.3 µM) and the MIC90 amounted to 64 µg/mL (≈ 193 µM).

For the compound `[H]/N=C(/N)N[C@H]1[C@H](O)[C@@H](O)[C@H](O[C@@H]2O[C@@H](C)[C@](O)(C=O)[C@H]2O[C@@H]2O[C@@H](CO)[C@H](O)[C@@H](O)[C@@H]2NC)[C@@H](N/C(N)=N\[H])[C@@H]1O` [Streptomycin, streptomycin], in assay [2], the MIC was 8 µg/mL and the “Mean OD600” value came to 0.11. Further, in assay [3], the “isolates resistant (CLSI criteria)” value was “none of them were resistant”, the MIC50 was 8 µg/mL (≈ 13.8 µM) and the MIC90 came out at 8 µg/mL (≈ 13.8 µM).

With `CN(C)[C@@H]1C(O)=C(C(N)=O)C(=O)[C@@]2(O)C(O)=C3C(=O)c4c(O)cccc4[C@@](C)(O)[C@H]3C[C@@H]12` [Tetracycline, tetracycline], in assay [2], the MIC was 2 µg/mL and the “Mean OD600” value came out at 0.05. In assay [3], this compound registered an MIC50 of 1 µg/mL (≈ 2.25 µM) and an MIC90 of 2 µg/mL (≈ 4.5 µM).

On to “fimH: fimH adhesin of type 1 pili used for immunization in a murine model (Langermann et al., 1997)”, for which the “prevention of in vivo colonization of the bladder mucosa” value in assay [4] is listed as 99%.
